One compound from BindingDB's records for patent US20230271939 (Ip2Ipo Innovations, 2023) can be followed below.

In assay [1] the target is T1, eIF-2-alpha kinase GCN2 (Homo sapiens, UniProt Q9P2K8). Briefly: GCN2 Enzyme Inhibition (ATP 10 uM). Here is the method:
(§1) The inhibitory activity of the Example compounds towards GCN2 enzyme was measured according to the description below, using a LanthaScreen TR-FRET (Time Resolved Fluorescence Resonance Energy Transfer) Kinase Activity assay distributed by ThermoFisher Scientific. The full-length human GCN2 enzyme (UniProt accession number Q9P2K8) was used for all experiments (Carna Bioscience). The TR-FRET pair was composed of GFP-eIF2α and LanthaScreen Terbium-labeled anti-peIF2α (pSer52) Antibody. […] Full inhibition (3000 nM commercial reference inhibitor) and DMSO vehicle control wells were also included on the same plate. All volumes were normalized to the final DMSO concentration of 2% of the reaction volume. Next, 5 μL of H2O was added to each well of the plate.

Assay [2] deals with T1, eIF-2-alpha kinase GCN2. Briefly: GCN2 Enzyme Inhibition (ATP 300 uM). Here is the method:
as §1

T1 sequence (Q9P2K8 whole entry): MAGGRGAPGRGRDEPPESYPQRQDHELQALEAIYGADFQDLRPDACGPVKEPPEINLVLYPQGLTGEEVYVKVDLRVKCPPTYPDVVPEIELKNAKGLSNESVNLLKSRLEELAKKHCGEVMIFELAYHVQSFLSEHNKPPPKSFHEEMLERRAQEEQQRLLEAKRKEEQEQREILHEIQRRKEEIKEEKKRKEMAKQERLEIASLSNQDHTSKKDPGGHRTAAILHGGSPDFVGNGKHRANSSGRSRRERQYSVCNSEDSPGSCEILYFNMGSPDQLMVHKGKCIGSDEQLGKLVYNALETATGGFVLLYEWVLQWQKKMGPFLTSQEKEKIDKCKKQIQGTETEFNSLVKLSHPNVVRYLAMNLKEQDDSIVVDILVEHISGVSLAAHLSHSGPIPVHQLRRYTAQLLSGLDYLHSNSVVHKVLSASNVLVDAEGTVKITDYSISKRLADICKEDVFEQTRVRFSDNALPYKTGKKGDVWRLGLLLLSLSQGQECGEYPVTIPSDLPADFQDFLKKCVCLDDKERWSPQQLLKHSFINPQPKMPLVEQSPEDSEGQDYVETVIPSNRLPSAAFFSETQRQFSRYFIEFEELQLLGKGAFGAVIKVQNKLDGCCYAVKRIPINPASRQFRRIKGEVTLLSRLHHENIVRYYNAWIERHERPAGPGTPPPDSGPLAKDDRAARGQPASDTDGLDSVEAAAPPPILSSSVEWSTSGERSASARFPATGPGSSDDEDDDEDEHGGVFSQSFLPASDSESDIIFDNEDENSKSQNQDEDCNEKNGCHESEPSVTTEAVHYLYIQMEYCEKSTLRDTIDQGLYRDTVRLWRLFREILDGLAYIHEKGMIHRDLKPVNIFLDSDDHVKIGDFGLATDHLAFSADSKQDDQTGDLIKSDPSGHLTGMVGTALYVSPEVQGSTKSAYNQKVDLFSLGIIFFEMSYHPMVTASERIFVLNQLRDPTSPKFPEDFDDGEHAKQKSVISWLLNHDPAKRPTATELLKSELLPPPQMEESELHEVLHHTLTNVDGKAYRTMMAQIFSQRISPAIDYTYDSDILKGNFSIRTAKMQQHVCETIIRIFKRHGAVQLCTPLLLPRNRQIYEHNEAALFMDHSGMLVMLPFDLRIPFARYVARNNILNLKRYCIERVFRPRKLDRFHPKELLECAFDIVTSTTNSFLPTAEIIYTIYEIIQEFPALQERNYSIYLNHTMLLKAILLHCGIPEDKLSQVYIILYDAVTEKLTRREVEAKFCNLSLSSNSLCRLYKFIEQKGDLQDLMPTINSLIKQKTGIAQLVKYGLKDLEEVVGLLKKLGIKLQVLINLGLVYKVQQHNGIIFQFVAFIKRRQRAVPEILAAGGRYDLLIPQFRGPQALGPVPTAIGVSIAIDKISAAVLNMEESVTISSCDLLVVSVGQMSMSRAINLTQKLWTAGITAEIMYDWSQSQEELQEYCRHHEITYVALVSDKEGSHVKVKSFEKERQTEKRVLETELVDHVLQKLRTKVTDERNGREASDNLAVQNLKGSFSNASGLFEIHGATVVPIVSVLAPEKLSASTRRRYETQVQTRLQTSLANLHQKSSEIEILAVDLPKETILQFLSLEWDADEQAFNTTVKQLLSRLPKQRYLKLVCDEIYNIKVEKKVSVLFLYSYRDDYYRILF

For orientation: IC50 means the concentration that gives 50% inhibition. A low value points to inhibition by little substance. Broadly, the Ki is the equilibrium dissociation constant of an inhibitor or competing ligand from its target. At eIF-2-alpha kinase GCN2 [1], `COc1ncc(Cl)cc1S(=O)(=O)Nc1ncc(F)c(C#Cc2cnc(N)nc2)c1F` [US20230271939, Example 10] registered an IC50 of 0.0191 µM and a Ki of 0.0061 µM. On eIF-2-alpha kinase GCN2 [2], this compound yielded an IC50 of 0.0573 µM and a Ki of 0.0009 µM.
